Reference: EP4119138A1 (Universität Hamburg, priority 2021, dated 2023)

Assays:
[1] = biological target: hDHODH (Homo sapiens, UniProt Q02127); experiment: hDHODH enzyme assay (DCPIP absorption, initial velocities); format: biochemical; details: for IC50: hDHODH inhibition, HsDHODH29-396 35 nM, 25 °C
Method: Expression and purification of the enzyme was carried out following the protocol of DAS et al. (SAR-Based Optimization of a 4-Quinoline Carboxylic Acid Analogue with Potent Antiviral Activity. ACS Med. Chem. Lett. 2013, 4, 517-521). The prepared enzyme stock solution (325 µM) was thawed to 0 °C and carefully diluted to 87.5 nM with ice-cooled Tris-HCl buffer (50 mM Tris-HCl, 0.1 % Triton X-100, pH 8.0)). Stock solutions of all test compounds (100 mM), L-DHO (250 mM) and CoQ1 (250 mM) were prepared in DMSO, stored at -20 °C and thawed to room temperature before use. The reaction was performed in triplicates in a 96 well plate with total volumes of 200 µL containing L-dihydroorotate (L-DHO; 0.10 mM), coenzyme Q1 (CoQ1; 25 µM), 2,6-dichlorophenolindophenol (DCPIP; 60 µM), HsDHODH29-396 (35 nM) and the test compound (varying concentrations) in Tris-HCl buffer.
The compound stock solutions were diluted in Tris-HCl buffer to give nine different concentrations and each sample was treated with a freshly prepared substrate mixture containing L-DHO, CoQ1 and DCPIP. By simultaneous addition of 80 µL ice-cooled enzyme solution ([…]) per well and immediate mixing by thorough pipetting, the reaction was started. The absorption of the mixture was monitored using a spectrophotometer (Berthold Technologies TriStar2S LB942 Multimode Reader, ICE software) with one data point per 10 seconds at an excitation wavelength of 600 nm and a temperature of 25 °C. During the first 200 s from enzyme addition, linear initial enzyme velocites were recorded, from which the IC50 values were calculated by non-linear fitting (Origin software) to the following equation: v = (V0)/(1 + (c)/(IC50)) [formula] wherein • v is the determined initial, linear enzyme velocity, • V0 is the calculated enzyme velocity without test compound and • c is the concentration of added test compound.

[2] = Octanol-water partition coefficient (logD); format: physicochemical; details: PBS pH 7.4 / octanol, 25 °C; read-out: Log D (PBS pH 7.4/ octanol)
Method: Octanol and phosphate buffered saline (PBS, 137 mM NaCl, 2.7 mM KCl, 10 mM Na2HPO4, 2.0 mM KH2PO4, pH 7.4) were saturated with each other prior to the experiment. Stock solutions of all test compounds (100 mM) were prepared in DMSO, stored at - 20 °C and diluted with the saturated PBS to 100 µM prior to the experiment. The experiment was performed in duplicates in 2 mL HPLC-vials. 300 µL of the test compound solution (100 µM) was overlayered with 300 µL saturated octanol. The emulsions were vortexed for 1 min and shaken for 1 h at 180 rpm and 25 °C. After phase separation, the aqueous phases and the initial 100 µM compound solution were quantified on HPLC.

[3] = S9 metabolism assay; format: in vitro ADME, rat; details: for amide cleavage: hydrolysis study in S9 extract of rat liver, identified via LC-MS; for Metabolic stability [% remaining at 1h in rat S9 fraction]: test compound 100 µM, 37 °C
Method: Stock solutions of all test compounds (100 mM) were prepared in DMSO, stored at-20 °C and diluted in PB to 600 µM prior to the assay. Rat liver S9 fractions (SigmaAldrich, Lot # SLCC9026 and # SLCB2232) were combined, aliquoted (200 µL), stored at -80 °C and thawed to 0 °C before use. The reaction was performed in triplicates in eppendorf tubes with total volumes of 300 µL containing MgCl2 (5 mM), NADPH (5 mM), rat S9 fraction (1 mg) and the test compound (100 µM) in phosphate buffer (38.5 mM Na2HPO4, 11.5 mM KH2PO4, pH 7.3). 7-Ethoxycoumarin was assessed as reference inhibitor and a control without inhibitor but an equivalent amount of buffer instead was run. The ice cooled S9 fraction was added to a solution of MgCl2 and NADPH in PB and the resulting mixture was preincubated for 10 minutes at 37 °C in a shaker. Subsequently the reaction was started by addition of the test compound (50 µL), followed by threefold pipetting. After 0 h, 1 h and 3 h, samples of 50 µL were taken from the reaction, mixed with 150 µL ice-cooled methanol and centrifuged at 14000 rpm and 4 °C for 15 minutes. The supernatant was filtered with a syringe fiter, immediately quantified on HPLC and stored at -20 °C until LC/MS analysis.

[4] = tested on: LASV Ba366; experiment: microbe, parasite or virus in culture; format: cell-based, Lassa virus; details: Mammarenavirus lassaense, Vero, 72 h
[5] = Membrane permeability (PAMPA assay); format: in vitro ADME; details: PBS pH 7.4, 5 h, 25 °C
Method: Stock solutions of all test compounds (100 mM) were prepared in DMSO, stored at -20 °C and diluted with phosphate buffered saline (PBS, 137 mM NaCl, 2.7 mM KCl, 10 mM Na2HPO4, 2.0 mM KH2PO4, pH 7.4) to 200 µM prior to the experiment. The assay was performed in triplicates in a 96 well Corning Gentest Precoated PAMPA Plate System, which was stored at -20 °C and thawed to room temperature for 1 h prior to the assay. Wells of the donor plate were filled with 300 µL of the compound solutions (200 µM) and 200 µL PBS were added to the wells of the receiver plate. Two controls without inhibitor but an equivalent amount of buffer instead was run. Bubble-free assembling of the two plates was followed by 5 h incubation at 25 °C. Finally, the plates were carefully separated from each other. 150 µL of each well of both plates were transferred to black 96-well FluoroNunc™ plates and quantified on fluorescence spectrophotometer (Berthold Technologies TriStar^2S LB942 Multimode Reader, ICE software). Membrane Permeabilities were calculated using the following equation: Ppampa = (−ln(1−(cacc (t))/(ceq)))/(Aperm ⋅((1)/(Vdon)+(1)/(Vacc))⋅t) [formula] wherein • Cacc(t) is the compound concentration in acceptor well at time t, • Aperm is the area of the membrane filter (0.3 cm^2), • Vdon is the donor well volume (0.3 mL), • Vacc is the acceptor well volume (0.2 mL) and • Ceq is the equilibrium concentration with ceq = (cdon (t)⋅Vdon + cacc (t)⋅Vacc)/(Vdon + Vacc) [formula] where cdon(t) is the compound concentration in donor well at time t.

[6] = tested on: EBOV Mayinga; experiment: microbe, parasite or virus in culture; format: cell-based, Ebola virus; details: Zaire ebolavirus, Vero, 96 h
[7] = in vitro; details: African green monkey
[8] = tested on: CCHFV Afg 09-2990; experiment: microbe, parasite or virus in culture; format: cell-based, Crimean-Congo hemorrhagic fever orthonairovirus; details: Orthonairovirus haemorrhagiae, Vero, 72 h
[9] = tested on: human PBMCs (CD4/CD8 T cells); experiment: Lymphocyte inhibition, Cytostim-stimulated PBMCs, flow cytometry; format: cell-based; details: T-cell stimulation by Cytostim, read-out: IC50 for CD4 and CD8 replication
Method: Lymphocyte inhibition was determined by using human PBMCs (peripheral blood mononuclear cells) as cell culture. The inhibitor compound was added at 8 different concentrations with each determination in triplicate and one control without inhibitor. T-cell stimulation was done by Cytostim, a reagent that binds T-cell receptors to MHC molecules of the antigen-presenting cells in an antibody-based manner and enables T-cell stimulation. Quantification was achieved by a flow cytometry-based method (Facs analysis) with staining of PBMCs with eFluor670 (eBioscience(TM)). The PBMCs are assigned to their populations (CD4/CD8 T cells) by use of other markers.

Sequence of hDHODH (Q02127 29-395 limits assumed): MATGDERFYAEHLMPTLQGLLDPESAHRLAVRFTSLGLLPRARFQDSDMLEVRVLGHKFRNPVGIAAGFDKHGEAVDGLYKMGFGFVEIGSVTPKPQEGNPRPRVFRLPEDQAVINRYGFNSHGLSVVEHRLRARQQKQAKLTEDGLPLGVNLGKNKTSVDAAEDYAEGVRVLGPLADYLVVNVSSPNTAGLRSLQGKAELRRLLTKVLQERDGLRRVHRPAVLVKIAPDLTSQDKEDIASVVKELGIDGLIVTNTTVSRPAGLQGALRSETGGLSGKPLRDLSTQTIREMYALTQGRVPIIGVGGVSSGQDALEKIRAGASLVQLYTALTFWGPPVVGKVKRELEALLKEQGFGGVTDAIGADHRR

With `O=C(NCc1cc2cc(F)cc(C(F)(F)F)c2o1)Nc1ccccc1C(=O)O` [Example 3] the IC50 [1] was ~230 nM.

For `O=C(NCc1cc2cccc(C(F)(F)F)c2o1)Nc1ccccc1C(=O)O` [Example 2, 2-(3-((7-(trifluoromethyl)benzofuran-2-yl)methyl)ureido)benzoic acid], the logD [2] was 1.96, the amide cleavage [3] was “no amide cleavage” and the “Metabolic stability [% remaining at 1h in rat S9 fraction]” value [3] was 92.0%. For the same compound, the IC50 [4] was 1000 nM, the Papp at 5 h, 200 µM [5] was 3.23 ×10⁻⁶ cm/s and the IC50 [1] was 90.7 nM.

With `O=C(Nc1cnccc1C(=O)O)Nc1cccc2ccccc12` [Example 18] the logD [2] was 0.32, the amide cleavage [3] was “did not show amide cleavage” and the “Metabolic stability [% remaining at 1h in rat S9 fraction]” value [3] was 89.6%. The Papp at 5 h, 200 µM [5] was 6.84 ×10⁻⁶ cm/s, the “percentual inhibition of hDHODH” value ([1]; at a 1 µM concentration) was 91% and the IC50 [1] was 81 nM.

With `CCC(=O)Nc1ccc(C#Cc2ccc(N3CCOCC3)cc2)cc1C(=O)O` [Example 4] the IC50 [4] was 600 nM and the IC50 [1] was 50 nM.

With `CCC(C)(C)c1cccc2cc(CNC(=O)Nc3ccccc3C(=O)O)oc12` [Example 1] the logD [2] was 2.98, the IC50 [6] was 14 nM and the amide cleavage [3] was “no amide cleavage”. The “Metabolic stability [% remaining at 1h in rat S9 fraction]” value [3] was 68.2%, the IC50 [4] was 35 nM and the CC50 [7] was > 1000 nM. For the same compound, the Papp at 5 h, 200 µM [5] was 5.74 ×10⁻⁶ cm/s, the IC50 [8] was 100 nM and the IC50 [9] was ~150 nM. For the same compound, the IC50 [1] was 9.2 nM.

In the case of `CCC(C)c1ccccc1OCCCC(=O)Nc1ccccc1C(=O)O` (centres unmarked) [reference compound], the amide cleavage [3] is reported as “showed a cleavage of the amide bond”.
